Results reported in article PMC7807878, “Development of an engineered peptide antagonist against periostin to overcome doxorubicin resistance in breast cancer” (BMC Cancer, 2021).
Where no end group is shown, it is not given here. The star is where a group is joined. FITC = O=C1OC2(c3ccc(O)cc3Oc3cc(O)ccc32)c2ccc(NC(=S)*)cc21

How the values were obtained:
[1] = test system: rPN; test: Dot blot, FITC-peptide binding to rPN; conditions: 500 ng rPN, 4 °C overnight, fluorescence
From the text: (§1) After selecting the best binding sequence of 12-amino acids peptides, 2 types of peptide would be synthesized, plain peptide and peptide conjugated with fluorescein isothiocyanate (FITC). For the synthesis of the latter, a spacer region ([…]) would be added at the C-terminal end of the peptide and FITC was conjugated with the side chain of lysine. Finally, C-terminal amidation would be performed. The synthesis of plain and FITC-labelled anti PN peptides was ordered from Syn Peptide company (Shanghai, China). FITC-labelled anti-PN peptide tested binding affinity to non-denaturing cell lysate of transfected BCA cells and their mock transfected cells and rPN by dot blot analysis. Briefly, 12.5 μg of cell lysate or 500 ng of rPN in 1 μl was applied onto nitrocellulose membrane. The membrane was blocked with 5% BSA followed by peptide incubation at 4 °C overnight and the fluorescent signal was detected the next day using the G:BOX gel documentation system. The checking of anti-PN peptide binding to intact PN-transfected BCA cells was also performed with similar process as immunocytochemistry plus a step of cell membrane permeabilizing after fixation by incubated with 1% Triton X for 1 min at RT. […] The observation was viewed under confocal microscope using laser diode 488 nm.

[2] = test system: non-denaturing cell lysate of PN-transfected BCA cells (MDA-MB-231 and MCF-7); test: Dot blot, FITC-peptide binding to non-denaturing cell lysate of PN-transfected BCA cells; conditions: 12.5 μg cell lysate, 4 °C overnight, fluorescence, vs mock
From the text: as §1

[3] = molecular target: T1, BSA (Bos taurus, UniProt P02769); test: Dot blot, FITC-peptide binding to BSA; conditions: BSA negative control, fluorescence
From the text: as §1

[4] = test system: PN-transfected BCA cells; test: Immunocytochemistry, FITC-peptide binding to permeabilized PN-transfected BCA cells; type: cell-based; conditions: 2 μM FITC-peptide, 1 h at RT, 1% Triton X permeabilized, confocal microscope; PN-transfected vs mock
From the text: as §1

[5] = test system: MCF-7 cells; test: Drug sensitivity (MTS), MCF-7; type: cell-based; conditions: Homo sapiens, MCF7, 48 h, MTS
Experimental: (§2) Determination the IC50 of BCA cells in response to chemotherapeutic drugs was analyzed by MTS assay. The experiment started from 5 × 10^3 of BCA cells in 100 μl medium that were seeded in 96-well plates for 24 h, then media was changed with different concentrations of new chemotherapeutic drugs [doxorubicin (S1208), paclitaxel (S1150), cisplatin (S1166), 5-fluorouracil (5-FU) (S1209) and gemcitabine (S1714) that were purchased from Selleck Chemicals, Houston, TX, USA] with or without rPN and anti-PN peptide for a further 48 h. After that, cell viability was determined by the MTS assay. Combination index (CI) was calculated by IC50 of combination of drug and PN or anti-PN peptide divided by IC50 of chemotherapeutic drug alone.
(§3) ANOVA test or Student’s t-test were applied for statistical analysis of the experiments. GraphPad Prism® version 7.04 software (GraphPad Software, San Diego, CA, USA) was used in calculation of IC50 values of chemotherapeutic drugs and PASW Statistics software version 18 (SPSS, IBM, Armonk, NY, USA) was used for other analysis. Dose-responses were compared by Holm-Sidak’s multiple comparison test. Mann-Whitney ranked-sum test was used for comparisons between normal and patient serum PN. Chi-square or Fisher’s exact test were used to determine the correlation between PN expression and clinical data in BCA patients. Kaplan-Meier Log-rank test using Kaplan-Meier Plotter online tool (https://kmplot.com/) was performed to determine the correlation between PN expression and survival time of BCA patients by online database. P-values of < 0.05 were used as statistical significance.

[6] = test system: MDA-MB-231 cells; test: Drug sensitivity (MTS), MDA-MB-231; type: cell-based; conditions: Homo sapiens, MDA-MB-231, 48 h, MTS
Experimental: as §2, §3

[7] = molecular target: T1, BSA; test: Isothermal titration calorimetry, binding to BSA (negative control); conditions: ITC
From the text: The physical properties of this peptide would be determined by an online tool (https://www.thermofisher.com) (Thermo Fisher Scientific). Structure of this peptide and the binding properties to PN would be predicted by PEP-FOLD3 [34] and pepATTRACT [35] tools from RPBS Web Portal (https://bioserv.rpbs.univ-paris-diderot.fr) using PN 3D-structure from RCSB PDB database (https://www.rcsb.org/structure/5YJG). […] The procedure followed the instructions for the machine. The results would be determined by the measurement of the exothermic energy after intermittent injection into the cell compartment and reported as the binding affinity constant (KD).

T1 sequence (P02769 25-607): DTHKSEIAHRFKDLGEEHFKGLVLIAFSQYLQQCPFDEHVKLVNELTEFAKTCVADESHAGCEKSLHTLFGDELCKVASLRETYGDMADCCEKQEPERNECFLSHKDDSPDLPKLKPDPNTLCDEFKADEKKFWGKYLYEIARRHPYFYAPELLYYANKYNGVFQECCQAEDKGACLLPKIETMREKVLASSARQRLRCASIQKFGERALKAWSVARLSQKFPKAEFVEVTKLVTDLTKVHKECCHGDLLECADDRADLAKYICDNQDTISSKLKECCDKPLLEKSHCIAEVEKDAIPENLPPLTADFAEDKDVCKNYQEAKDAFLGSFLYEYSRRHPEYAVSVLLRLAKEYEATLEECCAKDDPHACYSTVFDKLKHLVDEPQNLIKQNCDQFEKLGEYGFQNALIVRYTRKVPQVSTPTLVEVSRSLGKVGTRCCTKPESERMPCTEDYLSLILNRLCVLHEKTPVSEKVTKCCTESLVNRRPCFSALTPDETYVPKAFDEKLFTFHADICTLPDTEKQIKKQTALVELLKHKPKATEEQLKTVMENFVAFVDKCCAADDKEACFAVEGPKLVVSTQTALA

FITC-labelled anti-PN peptide (TFATHGKHWAAPGGGSCK(FITC)-NH2; N-terminus assumed; SMILES C[C@H](NC(=O)[C@H](Cc1c[nH]c2ccccc12)NC(=O)[C@H](Cc1c[nH]cn1)NC(=O)[C@H](CCCCN)NC(=O)CNC(=O)[C@H](Cc1c[nH]cn1)NC(=O)[C@@H](NC(=O)[C@H](C)NC(=O)[C@H](Cc1ccccc1)NC(=O)[C@@H](N)[C@@H](C)O)[C@@H](C)O)C(=O)N[C@@H](C)C(=O)N1CCC[C@H]1C(=O)NCC(=O)NCC(=O)NCC(=O)N[C@@H](CO)C(=O)N[C@@H](CS)C(=O)N[C@@H](CCCCNC(=S)Nc1ccc2c(c1)C(=O)OC21c2ccc(O)cc2Oc2cc(O)ccc21)C(N)=O)
Peptide binding to rPN [1]: markedly increased in rPN
Peptide binding to PN-transfected cell lysate [2]: higher in both PN-transfected BCA cells compared with their mock control cells
Peptide binding to BSA [3]: no signal in BSA
Peptide binding in permeabilized cells [4]: confirmed by immunocytochemistry staining in permeabilized cells

COc1cccc2c1C(=O)c1c(O)c3c(c(O)c1C2=O)C[C@@](O)(C(=O)CO)C[C@@H]3O[C@H]1C[C@H](N)[C@H](O)[C@H](C)O1 [doxorubicin]
IC50 ([5]; doxorubicin with anti-PN peptide, PN-transfected MCF-7, 48 h, P-value = 0.007): 970 nM
IC50 ([5]; doxorubicin, PN-transfected MCF-7, 48 h, P-value = 0.013 vs mock): 1440 nM
IC50 ([5]; doxorubicin, anti-PN peptide treated MCF-7 without rPN, 48 h, P-value = 0.558): 1040 nM
IC50 ([5]; doxorubicin, mock transfected MCF-7, 48 h): 1070 nM
IC50 ([5]; doxorubicin, rPN + anti-PN peptide treated MCF-7, 48 h, P-value = 0.038): 1270 nM
IC50 ([5]; doxorubicin, rPN-treated MCF-7, 48 h, P-value = 0.007): 1460 nM
IC50 ([5]; doxorubicin, untreated control MCF-7 (rPN treatment experiment), 48 h): 1050 nM
IC50 ([6]; doxorubicin with anti-PN peptide, PN-transfected MDA-MB-231, 48 h, P-value = 0.002): 797 nM
IC50 ([6]; doxorubicin with anti-PN peptide, mock transfected MDA-MB-231, 48 h, P-value = 0.932): 706 nM
IC50 ([6]; doxorubicin, PN-transfected MDA-MB-231, 48 h, P-value < 0.001 vs mock): 1090 nM
IC50 ([6]; doxorubicin, anti-PN peptide treated MDA-MB-231 without rPN, 48 h, P-value = 0.870): 896 nM
IC50 ([6]; doxorubicin, mock transfected MDA-MB-231, 48 h): 710 nM
IC50 ([6]; doxorubicin, rPN + anti-PN peptide treated MDA-MB-231, 48 h, P-value = 0.038): 1300 nM
IC50 ([6]; doxorubicin, rPN-treated MDA-MB-231, 48 h, P-value = 0.024): 1990 nM
IC50 ([6]; doxorubicin, untreated control MDA-MB-231 (rPN treatment experiment), 48 h): 845 nM

TFATHGKHWAAP [anti-PN peptide]
Binding affinity to BSA [7]: could not be determined in BSA
